Source: PubChem BioAssay AID248 (DTP/NCI, 2004)
Values joined by “and” are separate entries in the source; they are usually repeats but may differ in a detail not shown here. Equal values may be shown once. Inconclusive results and toxic doses are left out. No stated cut-off is given here; in the data, active means T/C of 150% or more; inactive means T/C below 125%.

System: L1210 leukemia ip in BDF1 mice, survival T/C
Assay: NCI In Vivo Anticancer Drug Screen. Data for tumor model L1210 Leukemia (intraperitoneal) in B6D2F1 (BDF1) mice
Details: endpoint: mean survival time, higher = longer survival
In short: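 Mice bearing the transplanted tumor received compound or vehicle. Survival of the treated group was divided by that of the vehicle-treated control group to give the ratio.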

[1] = dose: 100.0 mg/kg/injection, schedule: Q04DX003 (ip), vehicle: saline with Tween-80
[2] = dose: 200.0 mg/kg/injection, schedule: Q04DX003 (ip), vehicle: saline with Tween-80
[3] = dose: 400.0 mg/kg/injection, schedule: Q04DX003 (ip), vehicle: saline with Tween-80
[4] = dose: 50.0 mg/kg/injection, schedule: Q01DX001 (ip), vehicle: carboxymethylcellulose (CMC)
[5] = dose: 100.0 mg/kg/injection, schedule: Q01DX001 (ip), vehicle: carboxymethylcellulose (CMC)
[6] = dose: 200.0 mg/kg/injection, schedule: Q01DX001 (ip), vehicle: carboxymethylcellulose (CMC)
[7] = dose: 400.0 mg/kg/injection, schedule: Q01DX001 (ip), vehicle: carboxymethylcellulose (CMC)
[8] = dose: 100.0 mg/kg/injection, schedule: Q01DX001 (ip), vehicle: saline
[9] = dose: 200.0 mg/kg/injection, schedule: Q01DX001 (ip), vehicle: saline
[10] = dose: 100.0 mg/kg/injection, schedule: Q01DX009 (ip), vehicle: saline with Tween-80
[11] = dose: 200.0 mg/kg/injection, schedule: Q01DX009 (ip), vehicle: saline with Tween-80
[12] = dose: 400.0 mg/kg/injection, schedule: Q01DX009 (ip), vehicle: saline with Tween-80
[13] = dose: 150.0 mg/kg/injection, schedule: Q01DX009 (ip), vehicle: saline
[14] = dose: 100.0 mg/kg/injection, schedule: Q04DX003 (ip), vehicle: saline
[15] = dose: 200.0 mg/kg/injection, schedule: Q04DX003 (ip), vehicle: saline
[16] = dose: 400.0 mg/kg/injection, schedule: Q04DX003 (ip), vehicle: saline

Measured: T/C

CCCCOC(=O)c1ccc(OC(=O)NC(C)(C)C)cc1
inactive: dose: 25.0 mg/kg/injection, schedule: Q04DX003 (ip), vehicle: gum acacia 102 % of control and 90 % of control | dose: 50.0 mg/kg/injection, schedule: Q04DX003 (ip), vehicle: gum acacia 94 % of control and 102 % of control | dose: 100.0 mg/kg/injection, schedule: Q01DX001 (ip), vehicle: gum acacia 105 % of control | dose: 100.0 mg/kg/injection, schedule: Q04DX003 (ip), vehicle: gum acacia 98 % of control and 100 % of control | dose: 200.0 mg/kg/injection, schedule: Q01DX001 (ip), vehicle: gum acacia 95 % of control | dose: 400.0 mg/kg/injection, schedule: Q01DX001 (ip), vehicle: gum acacia 103 % of control

CCOC(CN=Cc1cccc2ccccc12)OCC
inactive: [1] 95 % of control | [2] 93 % of control | [3] 95 % of control

COc1ccc(C2=CC(c3ccc(OC)c(OC)c3)c3c(c4ccccc4oc3=O)O2)cc1OC (configuration not stated)
inactive: dose: 25.0 mg/kg/injection, schedule: Q01DX009 (ip), vehicle: water 93 % of control | dose: 50.0 mg/kg/injection, schedule: Q01DX009 (ip), vehicle: water 98 % of control | dose: 100.0 mg/kg/injection, schedule: Q01DX009 (ip), vehicle: water 93 % of control | dose: 200.0 mg/kg/injection, schedule: Q01DX009 (ip), vehicle: water 94 % of control | dose: 400.0 mg/kg/injection, schedule: Q01DX009 (ip), vehicle: water 92 % of control

Cc1ccc(NC2=C(Cl)C(=O)C(Nc3ccc(C)cc3)=C(Cl)C2=O)cc1
inactive: [4] 97 % of control | [5] 95 % of control | [6] 90 % of control | [7] 92 % of control

CCC(C)c1ccc(OCCO)cc1 (configuration not stated)
inactive: [8] 97 % of control | [9] 90 % of control

CCOC(CS(=O)(=O)CC(N)=O)OCC
inactive: [10] 97 % of control | [11] 95 % of control | [12] 92 % of control

[O]=[Zr]
inactive: dose: 25.0 mg/kg/injection, schedule: Q04DX003 (ip), vehicle: Klucel (hydroxypropylcellulose) (HPC) 90 % of control | dose: 50.0 mg/kg/injection, schedule: Q04DX003 (ip), vehicle: Klucel (hydroxypropylcellulose) (HPC) 88 % of control | dose: 100.0 mg/kg/injection, schedule: Q04DX003 (ip), vehicle: Klucel (hydroxypropylcellulose) (HPC) 88 % of control

c1ccc2c(c1)C[N+](=C1CCCCC1)C2
inactive: dose: 75.0 mg/kg/injection, schedule: Q01DX009 (ip), vehicle: saline 91 % of control | [8] 93 % of control | [13] 88 % of control | [9] 97 % of control | dose: 300.0 mg/kg/injection, schedule: Q01DX009 (ip), vehicle: saline 91 % of control | dose: 400.0 mg/kg/injection, schedule: Q01DX001 (ip), vehicle: saline 98 % of control

Nc1nc2ncc(CNc3ccc(C(=O)NC(CCC(=O)O)C(=O)O)cc3)nc2c(=O)n1N (configuration not stated)
inactive: dose: 100.0 mg/kg/injection, schedule: Q01DX001 (ip), vehicle: Klucel (hydroxypropylcellulose) (HPC) 98 % of control | dose: 200.0 mg/kg/injection, schedule: Q01DX001 (ip), vehicle: Klucel (hydroxypropylcellulose) (HPC) 101 % of control | dose: 400.0 mg/kg/injection, schedule: Q01DX001 (ip), vehicle: Klucel (hydroxypropylcellulose) (HPC) 98 % of control

CC1CC2CCC1C2O (configuration not stated)
inactive: dose: 37.5 mg/kg/injection, schedule: Q04DX003 (ip), vehicle: saline 100 % of control | dose: 75.0 mg/kg/injection, schedule: Q04DX003 (ip), vehicle: saline 97 % of control | dose: 150.0 mg/kg/injection, schedule: Q04DX003 (ip), vehicle: saline 90 % of control

Fc1ccc(NC(=S)SCc2ccc(Cl)cc2)cc1F
inactive: [1] 102 % of control | [2] 91 % of control | [3] 102 % of control

C(#CCN1CCCCC1)CN1CCCCC1
inactive: dose: 75.0 mg/kg/injection, schedule: Q01DX001 (ip), vehicle: saline 105 % of control | dose: 150.0 mg/kg/injection, schedule: Q01DX001 (ip), vehicle: saline 103 % of control | dose: 300.0 mg/kg/injection, schedule: Q01DX001 (ip), vehicle: saline 101 % of control

COc1cc2c(c(OC)c1OC)-c1ccc(OC)c(=O)cc1C(=O)CC2
inactive: [4] 122 % of control

CC(=O)Nc1cc2c(cc1[N+](=O)[O-])-c1ccccc1C2O (configuration not stated)
inactive: dose: 25.0 mg/kg/injection, schedule: Q04DX003 (ip), vehicle: saline 94 % of control | dose: 50.0 mg/kg/injection, schedule: Q04DX003 (ip), vehicle: saline 100 % of control | [8] 87 % of control | dose: 100.0 mg/kg/injection, schedule: Q01DX009 (ip), vehicle: saline 102 % of control | [1] 102 % of control | [14] 96 % of control | [13] 92 % of control | [2] 101 % of control | dose: 225.0 mg/kg/injection, schedule: Q01DX009 (ip), vehicle: saline 105 % of control | [3] 104 % of control

Cc1ccc(O)c(CCCO)c1
inactive: dose: 50.0 mg/kg/injection, schedule: Q01DX001 (ip), vehicle: saline 97 % of control | [8] 105 % of control | [9] 94 % of control

CCc1nc(N[N+](=O)[O-])nc(-c2ccccc2)c1-c1ccccc1O
inactive: dose: 100.0 mg/kg/injection, schedule: Q04DX002 (ip), vehicle: Klucel (hydroxypropylcellulose) (HPC) 107 % of control | dose: 200.0 mg/kg/injection, schedule: Q04DX002 (ip), vehicle: Klucel (hydroxypropylcellulose) (HPC) 94 % of control | dose: 400.0 mg/kg/injection, schedule: Q04DX002 (ip), vehicle: Klucel (hydroxypropylcellulose) (HPC) 107 % of control

COc1cc(OC)c(Br)c(OC)c1
inactive: dose: 100.0 mg/kg/injection, schedule: Q01DX009 (ip), vehicle: other 108 % of control | [14] 94 % of control | dose: 200.0 mg/kg/injection, schedule: Q01DX009 (ip), vehicle: other 93 % of control | [15] 96 % of control | dose: 400.0 mg/kg/injection, schedule: Q01DX009 (ip), vehicle: other 101 % of control | [16] 97 % of control

O=C(/C(=N/O)c1ccccc1)c1ccccc1
inactive: dose: 50.0 mg/kg/injection, schedule: Q01DX001 (ip), vehicle: other 103 % of control | dose: 100.0 mg/kg/injection, schedule: Q01DX001 (ip), vehicle: other 97 % of control | dose: 200.0 mg/kg/injection, schedule: Q01DX001 (ip), vehicle: other 105 % of control | dose: 400.0 mg/kg/injection, schedule: Q01DX001 (ip), vehicle: other 100 % of control

NCCSc1cc(O)c2c(c1N)C(=O)c1ccccc1C2=O
inactive: [4] 97 % of control | [5] 97 % of control | [6] 100 % of control | [7] 97 % of control

CC12CCC(O)CC1CCC1C2CCC2(C)C(c3ccc(=O)oc3)C(O)C3OC132 (configuration not stated)
inactive: dose: 1.87 mg/kg/injection, schedule: Q01DX009 (ip), vehicle: Klucel (hydroxypropylcellulose) (HPC) 105 % of control | dose: 3.5 mg/kg/injection, schedule: Q01DX009 (ip), vehicle: Klucel (hydroxypropylcellulose) (HPC) 96 % of control | dose: 7.0 mg/kg/injection, schedule: Q01DX009 (ip), vehicle: Klucel (hydroxypropylcellulose) (HPC) 91 % of control

Cc1cc(C(C)(C)C)c(SC(=O)N(C)C)c(C(C)(C)C)c1
inactive: [1] 97 % of control | [2] 95 % of control

CCOC(=O)C1CC1Cc1ccccc1 (configuration not stated)
inactive: [10] 101 % of control | [14] 100 % of control | [11] 102 % of control | [15] 105 % of control | [12] 104 % of control | [16] 94 % of control

S=C(N/N=C/c1ccc(-c2ccccc2)cc1)Nc1ccccc1
inactive: [10] 86 % of control | [1] 97 % of control | [11] 88 % of control | [2] 100 % of control | [3] 94 % of control

O=C(O)c1cc(O)cc(O)c1
inactive: dose: 25.0 mg/kg/injection, schedule: Q01DX009 (ip), vehicle: Klucel (hydroxypropylcellulose) (HPC) 100 % of control | dose: 50.0 mg/kg/injection, schedule: Q01DX009 (ip), vehicle: Klucel (hydroxypropylcellulose) (HPC) 97 % of control | dose: 100.0 mg/kg/injection, schedule: Q01DX009 (ip), vehicle: Klucel (hydroxypropylcellulose) (HPC) 100 % of control

Nc1cccc(CNc2ccc(C(=O)O)cc2)c1
inactive: dose: 100.0 mg/kg/injection, schedule: Q01DX001 (ip), vehicle: saline with Tween-80 113 % of control | dose: 200.0 mg/kg/injection, schedule: Q01DX001 (ip), vehicle: saline with Tween-80 103 % of control | dose: 400.0 mg/kg/injection, schedule: Q01DX001 (ip), vehicle: saline with Tween-80 98 % of control
